Results on eight molecules are retold here after PubChem BioAssay AID1259407 (Chemical Carcinogenesis Research Information System (CCRIS), 2018).

Activity calls are given as the source filed them. The rule behind the calls is not given here.

This series has as its system CCRIS mutagenicity, Ames/micronucleus/aberration tests. The series can be described thus: CCRIS mutagenicity studies.
The mark [1] stands for this setting: Test System: AMES SALMONELLA TYPHIMURIUM, Strain/Indicator: TA98, Metabolic Activation: NONE, Method: STANDARD PLATE.
The mark [2] stands for this setting: Test System: AMES SALMONELLA TYPHIMURIUM, Strain/Indicator: TA100, Metabolic Activation: NONE, Method: STANDARD PLATE.
Where [3] appears, read: Test System: AMES SALMONELLA TYPHIMURIUM, Strain/Indicator: TA100, Metabolic Activation: RAT, LIVER, S-9, AROCLOR 1254, Method: STANDARD PLATE.
The mark [4] stands for this setting: Test System: AMES SALMONELLA TYPHIMURIUM, Strain/Indicator: TA1535, Metabolic Activation: NONE, Method: STANDARD PLATE.
The mark [5] stands for this setting: Test System: AMES SALMONELLA TYPHIMURIUM, Strain/Indicator: TA1535, Metabolic Activation: RAT, LIVER, S-9, AROCLOR 1254, Method: STANDARD PLATE.
[6] abbreviates: Test System: AMES SALMONELLA TYPHIMURIUM, Strain/Indicator: TA1537, Metabolic Activation: NONE, Method: STANDARD PLATE.
[7] abbreviates: Test System: AMES SALMONELLA TYPHIMURIUM, Strain/Indicator: TA98, Metabolic Activation: NONE, Method: PREINCUBATION
The mark [8] stands for this setting: Test System: AMES SALMONELLA TYPHIMURIUM, Strain/Indicator: TA100, Metabolic Activation: NONE, Method: PREINCUBATION

`COc1c(O)cc2c3c1-c1ccccc1C[C@H]3N(C)CC2`: the mutagenic call reads like this: (Test System: AMES SALMONELLA TYPHIMURIUM, Strain/Indicator: TA98, Metabolic Activation: RAT, LIVER, S-9, PHENOBARBITAL AND BETA-NAPHTHOFLAVONE, Method: PREINCUBATION) “active; positive”; (Test System: AMES SALMONELLA TYPHIMURIUM, Strain/Indicator: TA100, Metabolic Activation: RAT, LIVER, S-9, PHENOBARBITAL AND BETA-NAPHTHOFLAVONE, Method: PREINCUBATION) “active; positive”.

In the case of `NC(=O)c1cccc2cccnc12`, the mutagenic call runs as follows: under setting [1], “inactive; negative”; (Test System: AMES SALMONELLA TYPHIMURIUM, Strain/Indicator: TA98, Metabolic Activation: RAT, LIVER, S-9, AROCLOR 1254, Method: STANDARD PLATE) “inactive; negative”; under setting [2], “inactive; negative”; under setting [3], “active; positive”; under setting [4], “inactive; negative”; under setting [5], “inactive; negative”. In addition, the mutagenic call is “inactive; negative” under setting [6] and “inactive; negative” (Test System: AMES SALMONELLA TYPHIMURIUM, Strain/Indicator: TA1537, Metabolic Activation: RAT, LIVER, S-9, AROCLOR 1254, Method: STANDARD PLATE).

Regarding `CNC(=O)ONC(C)=O`, the mutagenic call under setting [1] was “active; positive”; the mutagenic call (Test System: AMES SALMONELLA TYPHIMURIUM, Strain/Indicator: TA98, Metabolic Activation: RAT, LIVER, S-9, Method: STANDARD PLATE) is “active; positive”; the mutagenic call under setting [2] was “active; positive”.

With `CCCCCCCCCCCCCCCCCCCCCCO`, the mutagenic call runs as follows: under setting [1], “inactive; negative”; (Test System: AMES SALMONELLA TYPHIMURIUM, Strain/Indicator: TA98, Metabolic Activation: RAT LIVER S-9, Method: STANDARD PLATE) “inactive; negative”; under setting [2], “inactive; negative”; (Test System: AMES SALMONELLA TYPHIMURIUM, Strain/Indicator: TA100, Metabolic Activation: RAT LIVER S-9, Method: STANDARD PLATE) “inactive; negative”; under setting [4], “inactive; negative”; (Test System: AMES SALMONELLA TYPHIMURIUM, Strain/Indicator: TA1535, Metabolic Activation: RAT LIVER S-9, Method: STANDARD PLATE) “inactive; negative”. Further, the mutagenic call is, setting by setting: under setting [6], “inactive; negative”; (Test System: AMES SALMONELLA TYPHIMURIUM, Strain/Indicator: TA1537, Metabolic Activation: RAT LIVER S-9, Method: STANDARD PLATE) “inactive; negative”; (Test System: AMES SALMONELLA TYPHIMURIUM, Strain/Indicator: TA1538, Metabolic Activation: NONE, Method: STANDARD PLATE) “inactive; negative”; (Test System: AMES SALMONELLA TYPHIMURIUM, Strain/Indicator: TA1538, Metabolic Activation: RAT LIVER S-9, Method: STANDARD PLATE) “inactive; negative”; (Test System: CHINESE HAMSTER V-79, Strain/Indicator: V-79 (HGPRT)/THIOGUANINE, Metabolic Activation: NONE, Method: STANDARD PLATE) “inactive; negative”; (Test System: CHINESE HAMSTER V-79, Strain/Indicator: V-79 (HGPRT)/THIOGUANINE, Metabolic Activation: RAT LIVER S-9, Method: STANDARD PLATE) “inactive; negative”.

As to `C=C(C)[C@H]1CC=C(C)C(=O)C1`, the mutagenic call is, setting by setting: (Test System: AMES SALMONELLA TYPHIMURIUM, Strain/Indicator: TA98, Metabolic Activation: HAMSTER, LIVER, S-9, AROCLOR 1254, Method: PREINCUBATION) “inactive; negative”; under setting [7], “inactive; negative”; (Test System: AMES SALMONELLA TYPHIMURIUM, Strain/Indicator: TA98, Metabolic Activation: RAT, LIVER, S-9, AROCLOR 1254, Method: PREINCUBATION) “inactive; negative”; (Test System: AMES SALMONELLA TYPHIMURIUM, Strain/Indicator: TA100, Metabolic Activation: HAMSTER, LIVER, S-9, AROCLOR 1254, Method: PREINCUBATION) “inactive; negative”; under setting [8], “inactive; negative”; (Test System: AMES SALMONELLA TYPHIMURIUM, Strain/Indicator: TA100, Metabolic Activation: RAT, LIVER, S-9, AROCLOR 1254, Method: PREINCUBATION) “inactive; negative”. The mutagenic call (Test System: AMES SALMONELLA TYPHIMURIUM, Strain/Indicator: TA1535, Metabolic Activation: HAMSTER, LIVER, S-9, AROCLOR 1254, Method: PREINCUBATION) is “inactive; negative”; the mutagenic call (Test System: AMES SALMONELLA TYPHIMURIUM, Strain/Indicator: TA1535, Metabolic Activation: NONE, Method: PREINCUBATION) is “inactive; negative”; the mutagenic call (Test System: AMES SALMONELLA TYPHIMURIUM, Strain/Indicator: TA1535, Metabolic Activation: RAT, LIVER, S-9, AROCLOR 1254, Method: PREINCUBATION) was “inactive; negative”; the mutagenic call (Test System: AMES SALMONELLA TYPHIMURIUM, Strain/Indicator: TA1537, Metabolic Activation: HAMSTER, LIVER, S-9, AROCLOR 1254, Method: PREINCUBATION) is “inactive; negative”; the mutagenic call (Test System: AMES SALMONELLA TYPHIMURIUM, Strain/Indicator: TA1537, Metabolic Activation: NONE, Method: PREINCUBATION) was “inactive; negative”; the mutagenic call (Test System: AMES SALMONELLA TYPHIMURIUM, Strain/Indicator: TA1537, Metabolic Activation: RAT, LIVER, S-9, AROCLOR 1254, Method: PREINCUBATION) was “inactive; negative”.

With `Nc1ncnc2c1nc(Cl)n2[C@@H]1O[C@@H]2COP(=O)(O)O[C@H]2[C@H]1O`, the mutagenic call was “active; positive (structural and ploidy changes)” (End Point: IN VIVO CHROMOSOMAL ABERRATIONS, Test System: BONE MARROW, Species: MOUSE, Strain/Sex: BALB/C, Route: IP); “active; positive” (End Point: IN VIVO MICRONUCLEUS, Test System: BONE MARROW, Species: MOUSE, Strain/Sex: BALB/C, Route: IP); “inactive; negative. reevaluation of results: negative” (Test System: MOUSE LYMPHOMA, Strain/Indicator: L5178Y (TK+/TK-), Metabolic Activation: NONE, Method: SUSPENSION/PLATE); “inactive; negative. reevaluation of results: negative” (Test System: MOUSE LYMPHOMA, Strain/Indicator: L5178Y (TK+/TK-), Metabolic Activation: RAT, LIVER, S-9, AROCLOR 1254, Method: SUSPENSION/PLATE).

As to `O[C@H]1[C@H]2O[C@H]2c2c(ccc3cc4c(ccc5ccccc54)nc23)[C@@H]1O`, the mutagenic call runs as follows: under setting [7], “active; positive”; under setting [8], “active; positive”; (Test System: CHINESE HAMSTER V-79, Strain/Indicator: V-79/8-AZAGUANINE, Metabolic Activation: NONE) “active; positive”.

On to `O=C(CCl)CCl`, for which the mutagenic call is “inactive; negative” under setting [1]; “active; positive” (Test System: AMES SALMONELLA TYPHIMURIUM, Strain/Indicator: TA100, Metabolic Activation: NONE, Method: FLUCTUATION TEST); “active; positive” under setting [2]; “inactive; negative” (Test System: AMES SALMONELLA TYPHIMURIUM, Strain/Indicator: TA100, Metabolic Activation: RAT, LIVER, S-9, AROCLOR 1254, Method: FLUCTUATION TEST); “active; positive” under setting [3]; “active; positive” under setting [4]. In addition, the mutagenic call under setting [5] was “active; positive”.
